Five cell lines from the supplement of paper PMC10307832 can be followed below.

What all share (experiment): relative viability (nuclei count vs DMSO), 5 days (fraction); higher = more cells survive
Compound in the assay “4EGI-1 + Pictilisib”: O=C(O)C(Cc1ccccc1[N+](=O)[O-])=NNc1nc(-c2ccc(Cl)c(Cl)c2)cs1 (mixture of isomers) [4EGI-1] + CS(=O)(=O)N1CCN(Cc2cc3nc(-c4cccc5[nH]ncc45)nc(N4CCOCC4)c3s2)CC1 [Pictilisib] (partner 1 µM)
The essentials: (§1)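 Lung cancer cell lines were seeded in 1536-well plates and dosed by pin tool the next day, with either a single drug or a fixed anchor-drug dose combined with five library-drug doses (not always all listed) spaced in √10 steps. Five days later, one step fixed the cells and stained their nuclei (final 0.05% Triton X-100, 1% formaldehyde, 1 ug/ml Hoechst), and nuclei were counted on 4× images. Relative viability is the nuclei count in treated wells divided by the count in vehicle wells, and each value is the median of duplicate plates.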

Compound in the assay “4EGI-1 + Trametinib”: O=C(O)C(Cc1ccccc1[N+](=O)[O-])=NNc1nc(-c2ccc(Cl)c(Cl)c2)cs1 (mixture of isomers) [4EGI-1] + CC(=O)Nc1cccc(-n2c(=O)n(C3CC3)c(=O)c3c(Nc4ccc(I)cc4F)n(C)c(=O)c(C)c32)c1 [Trametinib] (partner 0.02 µM)
A digest of the protocol:
as §1

Compound in the assay “4EGI-1 + Vorinostat”: O=C(O)C(Cc1ccccc1[N+](=O)[O-])=NNc1nc(-c2ccc(Cl)c(Cl)c2)cs1 (mixture of isomers) [4EGI-1] + O=C(CCCCCCC(=O)Nc1ccccc1)NO [Vorinostat] (partner 1 µM)
The essentials:
as §1

Compound in the assay “XMD8-85 + Phenformin”: CN1CCN(CC1)C2=CC(=C(C=C2)NC3=NC=C4C(=N3)N(C5=CC=CC=C5C(=O)N4C)C)OC [XMD8-85] + N=C(N)NC(=N)NCCc1ccccc1 [Phenformin] (partner 250 µM)
A digest of the protocol:
as §1

LU99A: the relative viability is 0.375 with 4EGI-1 + Pictilisib (first compound 0.5 µM); 0.346 with 4EGI-1 + Pictilisib (first compound 5 µM); 0.326 in the assay with 4EGI-1 + Pictilisib (first compound 15.81 µM); 0.247 with 4EGI-1 + Pictilisib (first compound 50 µM); 0.516 with 4EGI-1 + Trametinib (first compound 0.5 µM); 0.436 in the assay with 4EGI-1 + Trametinib (first compound 1.581 µM). For the same cell line, the relative viability in the assay with 4EGI-1 + Trametinib (first compound 5 µM) was found to be 0.583; with 4EGI-1 + Trametinib (first compound 15.81 µM), 0.538; with 4EGI-1 + Trametinib (first compound 50 µM) it was 0.307; with 4EGI-1 + Vorinostat (first compound 0.5 µM) it was 0.514; in the assay with 4EGI-1 + Vorinostat (first compound 1.581 µM), 0.421; with 4EGI-1 + Vorinostat (first compound 5 µM) it was 0.44. Moreover, the relative viability stood at 0.528 with 4EGI-1 + Vorinostat (first compound 15.81 µM); 0.261 in the assay with 4EGI-1 + Vorinostat (first compound 50 µM); 0.816 with XMD8-85 + Phenformin (first compound 0.08 µM); 0.881 with XMD8-85 + Phenformin (first compound 0.253 µM); 0.858 with XMD8-85 + Phenformin (first compound 0.8 µM); 0.936 with XMD8-85 + Phenformin (first compound 2.53 µM). For the same cell line, the relative viability with XMD8-85 + Phenformin (first compound 8 µM) was 0.701.
With NCI-H2347, the relative viability with 4EGI-1 + Pictilisib (first compound 0.5 µM) was 0.469; in the assay with 4EGI-1 + Pictilisib (first compound 1.581 µM), 0.488; with 4EGI-1 + Pictilisib (first compound 5 µM), 0.579; with 4EGI-1 + Pictilisib (first compound 15.81 µM), 0.738; in the assay with 4EGI-1 + Pictilisib (first compound 50 µM) it was 0.361; with 4EGI-1 + Trametinib (first compound 0.5 µM) it was 0.304. The relative viability with 4EGI-1 + Trametinib (first compound 1.581 µM) stood at 0.27; with 4EGI-1 + Trametinib (first compound 5 µM) it was 0.309; with 4EGI-1 + Trametinib (first compound 15.81 µM), 0.298; in the assay with 4EGI-1 + Trametinib (first compound 50 µM) it was 0.302; with 4EGI-1 + Vorinostat (first compound 0.5 µM) it was 0.724; in the assay with 4EGI-1 + Vorinostat (first compound 1.581 µM) it was 0.59. The relative viability in the assay with 4EGI-1 + Vorinostat (first compound 5 µM) turned out to be 0.689; with 4EGI-1 + Vorinostat (first compound 15.81 µM), 0.589; with 4EGI-1 + Vorinostat (first compound 50 µM) it was 0.36; with XMD8-85 + Phenformin (first compound 0.08 µM), 0.357; with XMD8-85 + Phenformin (first compound 0.253 µM), 0.382; with XMD8-85 + Phenformin (first compound 0.8 µM), 0.388. Also, the relative viability in the assay with XMD8-85 + Phenformin (first compound 2.53 µM) stood at 0.393.
Turning to EKVX, the relative viability in the assay with 4EGI-1 + Pictilisib (first compound 0.5 µM) worked out at 0.443; with 4EGI-1 + Pictilisib (first compound 1.581 µM), 0.371; with 4EGI-1 + Pictilisib (first compound 5 µM), 0.442; with 4EGI-1 + Pictilisib (first compound 15.81 µM), 0.262; in the assay with 4EGI-1 + Pictilisib (first compound 50 µM) it was 0.405; with 4EGI-1 + Trametinib (first compound 0.5 µM), 0.436. Besides, the relative viability stood at 0.351 in the assay with 4EGI-1 + Trametinib (first compound 5 µM); 0.239 with 4EGI-1 + Trametinib (first compound 15.81 µM); 0.268 with 4EGI-1 + Trametinib (first compound 50 µM); 0.852 with 4EGI-1 + Vorinostat (first compound 0.5 µM); 0.746 with 4EGI-1 + Vorinostat (first compound 1.581 µM); 0.759 with 4EGI-1 + Vorinostat (first compound 5 µM). The relative viability in the assay with 4EGI-1 + Vorinostat (first compound 15.81 µM) was determined as 0.309; with 4EGI-1 + Vorinostat (first compound 50 µM) it was 0.203; with XMD8-85 + Phenformin (first compound 0.08 µM), 0.226; in the assay with XMD8-85 + Phenformin (first compound 0.253 µM), 0.218; in the assay with XMD8-85 + Phenformin (first compound 0.8 µM), 0.228; in the assay with XMD8-85 + Phenformin (first compound 2.53 µM), 0.245. For the same cell line, in the assay with XMD8-85 + Phenformin (first compound 8 µM), the relative viability amounted to 0.202.
With H3255, the relative viability was 0.578 with 4EGI-1 + Pictilisib (first compound 0.5 µM); 0.431 with 4EGI-1 + Pictilisib (first compound 1.581 µM); 0.516 with 4EGI-1 + Pictilisib (first compound 5 µM); 0.361 with 4EGI-1 + Pictilisib (first compound 15.81 µM); 0.453 with 4EGI-1 + Pictilisib (first compound 50 µM); 0.679 with 4EGI-1 + Trametinib (first compound 0.5 µM). The relative viability with 4EGI-1 + Trametinib (first compound 5 µM) worked out at 0.614; in the assay with 4EGI-1 + Trametinib (first compound 50 µM), 0.523; with 4EGI-1 + Vorinostat (first compound 0.5 µM), 0.792; with 4EGI-1 + Vorinostat (first compound 5 µM) it was 0.77; with 4EGI-1 + Vorinostat (first compound 50 µM), 0.735; with XMD8-85 + Phenformin (first compound 0.08 µM), 0.401. For the same cell line, the relative viability was determined as 0.373 in the assay with XMD8-85 + Phenformin (first compound 0.253 µM), 0.339 with XMD8-85 + Phenformin (first compound 0.8 µM) and 0.726 with XMD8-85 + Phenformin (first compound 2.53 µM).
As to NCI-H1793, the relative viability was found to be 0.363 with 4EGI-1 + Pictilisib (first compound 0.5 µM); 0.266 with 4EGI-1 + Pictilisib (first compound 1.581 µM); 0.377 in the assay with 4EGI-1 + Pictilisib (first compound 5 µM); 0.241 with 4EGI-1 + Pictilisib (first compound 15.81 µM); 0.235 with 4EGI-1 + Pictilisib (first compound 50 µM); 0.49 with 4EGI-1 + Trametinib (first compound 0.5 µM). For the same cell line, the relative viability was found to be 0.431 in the assay with 4EGI-1 + Trametinib (first compound 1.581 µM); 0.414 with 4EGI-1 + Trametinib (first compound 5 µM); 0.407 in the assay with 4EGI-1 + Trametinib (first compound 15.81 µM); 0.273 with 4EGI-1 + Trametinib (first compound 50 µM); 1.03 in the assay with 4EGI-1 + Vorinostat (first compound 0.5 µM); 0.823 with 4EGI-1 + Vorinostat (first compound 1.581 µM). The relative viability in the assay with 4EGI-1 + Vorinostat (first compound 5 µM) was 0.999; in the assay with 4EGI-1 + Vorinostat (first compound 15.81 µM), 0.516; in the assay with 4EGI-1 + Vorinostat (first compound 50 µM), 0.353; with XMD8-85 + Phenformin (first compound 0.08 µM), 0.402; with XMD8-85 + Phenformin (first compound 0.253 µM) it was 0.409; with XMD8-85 + Phenformin (first compound 0.8 µM) it was 0.38. Further, the relative viability in the assay with XMD8-85 + Phenformin (first compound 2.53 µM) worked out at 0.375; with XMD8-85 + Phenformin (first compound 8 µM), 0.317.
